The values below come from patent publication US20230219986A1, “NOVEL AMINOPYRIMIDINE EGFR INHIBITOR” (QILU PHARMACEUTICAL CO., LTD., priority 2020, published 2023).

In data set [1] the target is T1, wild-type EGFR (Homo sapiens, UniProt P00533).
T1 construct: purchased Signalchem
Put plainly: Enzymology experiment in vitro (HTRF/FRET kinase activity), wild-type EGFR. It is filed as biochemical. The conditions noted are these: HTRF KinEASE-TK, read-out: EGFR (WT) IC50. The procedure, abridged: (§1)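 Kinase reaction run 40 min at room temperature with peptide and ATP after a 10 min compound–enzyme preincubation. Phosphorylation read as HTRF signal after 1 h with Eu³⁺ antibody, XL665-streptavidin and EDTA (Cisbio KinEASE-TK).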

In data set [2] the target is Ba/F3 De119/T790M/C797S EGFR triple mutant cell line (Homo sapiens, UniProt P00533, T790M/C797S, cells depend on it, form not given). Put plainly: Cell proliferation inhibition experiment (CellTiter-Glo), Ba/F3 De119/T790M/C797S. Type of data set: cell-based. The conditions noted are these: Ba/F3 Del19/T790M/C797S EGFR triple mutant cells, 72 hours, Cell Titer-Glo; read-out: Ba/F3 (Del19/T790M/C797S) IC50.

In data set [3] the test system is PC9 (De119/T790M/C797S) nude mice xenograft model. Put plainly: In vivo efficacy research experiment A (compound 242). Also on record: species or system BALB/c-nu mice. The conditions noted are these: for Tumor volume (mm^3): mean ± standard error. On the procedure: To evaluate the antitumor activity and toxic side effects of compound 242 orally administered for 21 days in PC9 (De119/T790M/C797S) nude mice xenograft model.
(§2) BALB/c-nu mice, female, SPF grade, purchased from Beijing Vital River Laboratory Animal Technology Co., Ltd.
(§3) PC9 (De119/T790M/C797S) cells, constructed by Qilu Pharmaceutical Co., Ltd.
(§4) PC9 (De119/T790M/C797S) cells were cultured in RPMI 1640 medium containing 10% FBS at 37° C. in a 5% carbon dioxide incubator; cells in exponential growth phase were collected and inoculated.
Under sterile conditions, PC9 (De119/T790M/C797S) cell suspension cultured in vitro was taken, the cell concentration was adjusted to 5×10^7 cells /mL after centrifugation, and subcutaneously inoculated under the right armpit of mice (0.1 mL/ mouse). The day of inoculation was set as day 0.
a, When the average tumor volume was about 180 mm^3, 24 mice with moderate tumor volume were selected and randomly divided into 3 groups according to the tumor volume: G1: solvent control group, G2: compound 242 (25 mg/kg) and G3: compound 242 (75/50 mg/kg), 8 mice/group.
(§5) b, After animals were grouped, administration was started, and the administration volume was 10 mL/kg, administered orally (po); administered by weight once a day for 21 consecutive days; tumor diameter was measured twice a week.
(§6) c, Tumor volume (TV): the tumor volume was measured twice a week to observe the volume change and growth rate of the tumor. Tumor volume V=½×a×b^2, where a and b represent the long and short diameters of the tumor, respectively. The growth inhibition effect of the compounds on tumor tissue was evaluated by tumor growth inhibition rate TGI (%). […] The data of the administration group and the negative control group were taken on the same day.
(§7) d, During the experiment, the living conditions of the mice, including appearance signs, general behavior, mental state, food intake, respiratory state, feces and urine characteristics, local injection site and other toxicity manifestations, were closely observed.
(§8) e, After the experiment reached the end point, the mice were euthanized, and the animal carcasses were frozen in a freezer and handed over to a qualified medical waste disposal unit for disposal.

Data set [4] addresses T2, L858R/T790M/C797S triple mutant EGFR (Homo sapiens, UniProt P00533, C797S/L858R/T790M).
T2 construct: purchased Signalchem
Put plainly: Enzymology experiment in vitro (HTRF/FRET kinase activity), L858R/T790M/C797S triple mutant EGFR. It is filed as biochemical. The conditions noted are these: HTRF KinEASE-TK, read-out: EGFR (L858R/T790M/C797S) IC50. In outline:
as §1
(Time-resolved FRET reads energy transfer from a long-lived donor to a nearby acceptor.)

For data set [5], the system named is EGFR wild-type cell line A431. Put plainly: Cell proliferation inhibition experiment (CellTiter-Glo), A431. Type of data set: cell-based. The conditions noted are these: Homo sapiens, A-431, 72 h, A431 cells, Cell Titer-Glo, read-out: A431 EGFR WT IC50. In outline:
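Luminescent CellTiter-Glo readout, 30 min at room temperature, after 72 h compound exposure at 37° C., 5% CO2 with 0.1% DMSO final. EGFR wild-type A431 cells were seeded at 800 per well and grown 24 h before dosing. IC50 derived from the dose-response.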

Data set [6] deals with Ba/F3 L858R/T790M/C797S EGFR triple mutant cell line (Homo sapiens, UniProt P00533, T790M/C797S/L858R, cells depend on it). Briefly: Cell proliferation inhibition experiment (CellTiter-Glo), Ba/F3 L858R/T790M/C797S. The conditions noted are these: 72 hours, Cell Titer-Glo, read-out: Ba/F3 (L858R/T790M/C797S) IC50. Type of data set: cell-based. On the technique in general: ATP-based viability assays read luminescence as a measure of living cells.

Data set [7] relates to PC9 (De119/T790M/C797S) nude mice xenograft model. Put plainly: In vivo efficacy research experiment B (compound 243). Also on record: species or system BALB/c-nu mice. The conditions noted are these: for Tumor volume (mean ± standard error): PC9 (De119/T790M/C797S) xenograft. On the procedure: To evaluate the antitumor activity and toxic side effects of compound 243 orally administered for 21 days in PC9 (De119/T790M/C797S) nude mice xenograft model.
as §2, §3, §4
Under sterile conditions, PC9 (De119/T790M/C797S) cell suspension cultured in vitro was taken, the cell concentration was adjusted to 3×10^7 cells/mL after centrifugation, and subcutaneously inoculated under the right armpit of mice (0.1 mL/ mouse). The day of inoculation was set as day 0.
a, When the average tumor volume was about 140 mm^3, 21 mice with moderate tumor volume were selected and randomly divided into […] according to the tumor volume: G1: solvent control group, G2: compound 243 (15 mg/kg) and G3: compound 243 (40 mg/kg), 7 mice/group.
as §5, §6, §7, §8

Setting [8] is: 25 mg/kg po once a day for 21 days.
Where [9] appears, read: 75 (D1-D6), 50 (D7-D21) mg/kg po once a day.
[10] abbreviates: 15 mg/kg po once a day for 21 days.
Setting [11] is: 40 mg/kg po once a day for 21 days.

Marks after values point to notes of the source that are not given here.

T2 sequence (P00533 25-1210 T790M/C797S/L858R): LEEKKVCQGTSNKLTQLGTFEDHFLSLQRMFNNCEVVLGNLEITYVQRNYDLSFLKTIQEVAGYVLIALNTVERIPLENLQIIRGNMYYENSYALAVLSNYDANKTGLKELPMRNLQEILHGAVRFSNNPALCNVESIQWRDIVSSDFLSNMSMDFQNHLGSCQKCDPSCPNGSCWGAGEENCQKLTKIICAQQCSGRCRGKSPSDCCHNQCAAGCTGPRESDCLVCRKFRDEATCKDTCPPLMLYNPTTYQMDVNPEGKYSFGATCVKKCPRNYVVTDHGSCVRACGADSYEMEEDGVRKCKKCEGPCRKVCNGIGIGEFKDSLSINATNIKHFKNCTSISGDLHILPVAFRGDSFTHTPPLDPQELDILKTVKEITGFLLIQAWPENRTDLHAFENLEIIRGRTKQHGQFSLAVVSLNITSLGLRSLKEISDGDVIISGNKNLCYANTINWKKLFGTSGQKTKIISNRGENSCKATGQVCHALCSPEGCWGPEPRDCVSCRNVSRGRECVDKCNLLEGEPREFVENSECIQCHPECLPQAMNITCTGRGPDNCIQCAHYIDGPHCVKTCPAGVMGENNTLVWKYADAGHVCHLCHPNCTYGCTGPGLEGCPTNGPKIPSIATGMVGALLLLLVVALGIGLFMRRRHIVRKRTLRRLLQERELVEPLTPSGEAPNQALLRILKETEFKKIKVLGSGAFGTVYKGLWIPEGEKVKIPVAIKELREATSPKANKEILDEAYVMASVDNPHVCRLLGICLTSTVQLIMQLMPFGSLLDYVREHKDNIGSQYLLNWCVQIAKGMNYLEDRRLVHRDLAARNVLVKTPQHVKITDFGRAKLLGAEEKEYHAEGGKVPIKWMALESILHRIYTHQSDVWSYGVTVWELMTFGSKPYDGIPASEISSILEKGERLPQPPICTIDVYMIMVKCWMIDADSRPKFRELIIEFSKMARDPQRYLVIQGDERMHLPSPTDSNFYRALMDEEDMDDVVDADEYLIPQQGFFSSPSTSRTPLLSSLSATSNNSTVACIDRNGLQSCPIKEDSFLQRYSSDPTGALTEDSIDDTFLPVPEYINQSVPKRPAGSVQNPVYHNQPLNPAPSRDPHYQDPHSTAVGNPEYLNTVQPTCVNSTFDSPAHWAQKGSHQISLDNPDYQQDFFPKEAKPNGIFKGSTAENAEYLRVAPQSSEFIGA
Ba/F3 De119/T790M/C797S EGFR triple mutant cell line, sequence (P00533 with tags, fused parts or gaps DEL746-750/T790M/C797S, form open): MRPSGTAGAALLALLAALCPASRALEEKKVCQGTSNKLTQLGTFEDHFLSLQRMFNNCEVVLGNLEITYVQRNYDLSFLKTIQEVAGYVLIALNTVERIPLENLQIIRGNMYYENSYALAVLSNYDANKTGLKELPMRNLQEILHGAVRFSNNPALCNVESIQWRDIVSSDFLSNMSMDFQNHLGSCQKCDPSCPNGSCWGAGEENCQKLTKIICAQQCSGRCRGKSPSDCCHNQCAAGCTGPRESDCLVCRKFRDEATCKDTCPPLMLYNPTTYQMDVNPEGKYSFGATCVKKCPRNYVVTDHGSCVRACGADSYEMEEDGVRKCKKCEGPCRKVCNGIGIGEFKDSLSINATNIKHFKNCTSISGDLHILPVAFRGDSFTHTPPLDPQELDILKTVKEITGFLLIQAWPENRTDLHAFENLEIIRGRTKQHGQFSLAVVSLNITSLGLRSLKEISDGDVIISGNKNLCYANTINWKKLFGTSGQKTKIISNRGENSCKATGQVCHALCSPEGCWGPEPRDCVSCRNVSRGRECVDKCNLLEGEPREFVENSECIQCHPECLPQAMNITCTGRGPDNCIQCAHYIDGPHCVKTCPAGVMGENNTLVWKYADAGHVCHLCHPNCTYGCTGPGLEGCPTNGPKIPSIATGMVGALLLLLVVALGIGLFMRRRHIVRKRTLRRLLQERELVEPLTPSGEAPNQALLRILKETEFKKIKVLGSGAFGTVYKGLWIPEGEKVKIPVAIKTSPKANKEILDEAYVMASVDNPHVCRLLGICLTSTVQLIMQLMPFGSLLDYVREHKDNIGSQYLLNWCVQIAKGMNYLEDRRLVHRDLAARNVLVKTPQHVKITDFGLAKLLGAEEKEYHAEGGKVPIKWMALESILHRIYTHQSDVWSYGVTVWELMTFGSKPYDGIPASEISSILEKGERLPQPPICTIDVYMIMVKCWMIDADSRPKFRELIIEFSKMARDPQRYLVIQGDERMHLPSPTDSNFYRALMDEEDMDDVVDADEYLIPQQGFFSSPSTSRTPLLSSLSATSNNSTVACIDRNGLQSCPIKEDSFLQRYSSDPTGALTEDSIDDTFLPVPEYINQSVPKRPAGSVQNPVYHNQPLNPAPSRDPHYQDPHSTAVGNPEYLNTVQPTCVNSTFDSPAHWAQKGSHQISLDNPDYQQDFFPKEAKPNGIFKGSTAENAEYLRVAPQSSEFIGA
Ba/F3 L858R/T790M/C797S EGFR triple mutant cell line, sequence (P00533 whole entry T790M/C797S/L858R): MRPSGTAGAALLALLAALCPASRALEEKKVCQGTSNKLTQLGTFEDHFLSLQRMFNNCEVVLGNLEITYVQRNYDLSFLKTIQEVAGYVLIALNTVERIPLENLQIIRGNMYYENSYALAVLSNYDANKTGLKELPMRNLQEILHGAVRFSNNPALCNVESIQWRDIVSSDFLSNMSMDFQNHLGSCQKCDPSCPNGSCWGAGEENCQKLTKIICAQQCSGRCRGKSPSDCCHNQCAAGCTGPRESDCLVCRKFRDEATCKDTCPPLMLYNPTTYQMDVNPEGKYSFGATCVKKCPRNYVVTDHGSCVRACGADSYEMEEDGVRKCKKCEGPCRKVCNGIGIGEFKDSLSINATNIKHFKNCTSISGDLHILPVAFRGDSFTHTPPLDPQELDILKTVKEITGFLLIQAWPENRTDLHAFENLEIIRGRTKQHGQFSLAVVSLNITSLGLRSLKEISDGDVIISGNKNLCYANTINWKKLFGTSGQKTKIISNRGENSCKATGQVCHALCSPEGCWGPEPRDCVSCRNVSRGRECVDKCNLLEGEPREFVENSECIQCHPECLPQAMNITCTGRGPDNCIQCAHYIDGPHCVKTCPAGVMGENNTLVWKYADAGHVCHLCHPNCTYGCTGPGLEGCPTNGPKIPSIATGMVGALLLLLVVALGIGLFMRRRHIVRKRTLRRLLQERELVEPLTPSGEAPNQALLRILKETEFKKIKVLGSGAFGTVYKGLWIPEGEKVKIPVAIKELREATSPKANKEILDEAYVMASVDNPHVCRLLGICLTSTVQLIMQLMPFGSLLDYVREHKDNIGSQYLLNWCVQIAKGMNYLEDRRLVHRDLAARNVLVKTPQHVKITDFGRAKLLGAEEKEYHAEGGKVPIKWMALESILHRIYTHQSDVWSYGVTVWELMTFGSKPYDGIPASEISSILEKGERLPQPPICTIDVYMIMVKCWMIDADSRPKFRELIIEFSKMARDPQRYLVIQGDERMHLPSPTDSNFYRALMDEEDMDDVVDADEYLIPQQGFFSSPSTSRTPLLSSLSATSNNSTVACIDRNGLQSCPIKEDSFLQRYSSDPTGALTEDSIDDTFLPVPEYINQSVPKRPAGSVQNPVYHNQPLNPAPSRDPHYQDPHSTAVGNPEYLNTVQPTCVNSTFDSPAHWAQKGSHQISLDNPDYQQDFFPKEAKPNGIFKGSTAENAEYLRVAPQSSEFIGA
T1 sequence (P00533 25-1210): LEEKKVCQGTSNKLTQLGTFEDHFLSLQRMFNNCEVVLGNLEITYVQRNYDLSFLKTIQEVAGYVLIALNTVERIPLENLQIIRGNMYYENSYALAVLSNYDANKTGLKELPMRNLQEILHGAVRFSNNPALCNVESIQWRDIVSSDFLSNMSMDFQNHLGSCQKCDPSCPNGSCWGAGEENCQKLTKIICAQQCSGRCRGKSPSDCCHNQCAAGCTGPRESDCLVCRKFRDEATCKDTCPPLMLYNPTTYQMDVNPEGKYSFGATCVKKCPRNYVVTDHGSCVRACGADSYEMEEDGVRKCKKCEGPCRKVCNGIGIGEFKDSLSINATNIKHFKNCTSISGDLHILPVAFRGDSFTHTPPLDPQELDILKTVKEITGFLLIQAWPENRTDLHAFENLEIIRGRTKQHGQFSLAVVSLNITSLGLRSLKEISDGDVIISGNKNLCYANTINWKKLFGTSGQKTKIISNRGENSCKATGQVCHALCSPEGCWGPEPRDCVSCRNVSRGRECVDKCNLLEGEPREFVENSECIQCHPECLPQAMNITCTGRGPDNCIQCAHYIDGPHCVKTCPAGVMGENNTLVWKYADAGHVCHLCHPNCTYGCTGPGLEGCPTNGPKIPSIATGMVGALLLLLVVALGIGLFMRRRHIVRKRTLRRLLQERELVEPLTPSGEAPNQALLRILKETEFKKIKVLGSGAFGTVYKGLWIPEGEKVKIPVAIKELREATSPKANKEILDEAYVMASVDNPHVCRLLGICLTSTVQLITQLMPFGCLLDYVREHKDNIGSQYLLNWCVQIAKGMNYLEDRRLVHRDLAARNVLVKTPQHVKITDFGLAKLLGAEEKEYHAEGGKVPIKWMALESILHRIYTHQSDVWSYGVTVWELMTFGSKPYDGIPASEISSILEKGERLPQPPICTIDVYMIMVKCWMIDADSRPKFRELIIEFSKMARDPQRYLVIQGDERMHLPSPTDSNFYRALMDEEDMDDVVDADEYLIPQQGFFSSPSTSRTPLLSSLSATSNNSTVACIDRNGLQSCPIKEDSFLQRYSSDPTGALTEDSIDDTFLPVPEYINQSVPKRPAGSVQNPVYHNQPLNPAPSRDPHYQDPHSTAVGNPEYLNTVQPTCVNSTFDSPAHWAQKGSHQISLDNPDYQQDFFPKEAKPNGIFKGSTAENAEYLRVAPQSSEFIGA

With `COc1cc(N2CCC3(CCN(CC4(F)CC4)CC3)CC2)c(-c2cnn(C)c2)cc1Nc1ncc(Br)c(Nc2ccc3nccnc3c2P(C)(C)=O)n1` [compound 242, (6-((5-Bromo-2-((4-(9-((1-fluorocyclopropyl)methyl)-3,9-diazaspiro[5.5]undecan-3yl)-2-methoxy-5-(1-methyl-1H-pyrazol-4-yl)phenyl)amino)pyrimidin-4-yl)amino)quinoxalin-5-yl)dimethylphosphine oxide], the values for the IC50 in data set [1], in data set [4] and in data set [5] were 2.4 nM, 0.4 nM and 75.7 nM, respectively. Further, the GI50 in data set [2] was 1.36 nM; in data set [6] it was 3.07 nM. In data set [3] (25 mg/kg and 50 mg/kg doses), the tolerability of mice result is listed as “well tolerated”. The “TGI (%)” value in data set [3] (setting [8]) stood at 102%; in data set [3] (setting [9]), 105%. Besides, the figures for the “Weight change (%)” value in data set [3] (setting [8]) and in data set [3] (setting [9]) were 2.4% and −3.4%, respectively. For the same molecule, the “Tumor volume (mm^3)” value in data set [3] (setting [8]) is on record as 139.8 ± 13.7** mm^3; in data set [3] (setting [9]), 64.0 ± 11.9** mm^3. Besides, in data set [3] (25, 75/50 mg/kg), the “tumor growth inhibition (in words)” value was “significantly inhibit tumor growth”.
For the molecule `COc1cc(N2CCC3(CC2)CCN(C(C)(C)CF)CC3)c(-c2cnn(C)c2)cc1Nc1ncc(Br)c(Nc2ccc3nccnc3c2P(C)(C)=O)n1` [compound 243, (6-((5-Bromo-2-((4-(9-(1-fluoro-2-methylpropan-2-yl)-3,9-diazaspiro[5.5]undecan-3-yl)-2-methoxy-5-(1-methyl-1H-pyrazol-4-yl)phenyl)amino)pyrimidin-4-yl)amino)quinoxalin-5-yl)dimethylphosphine oxide], the IC50 stood at 4.91 nM in data set [1], 0.54 nM in data set [4] and 141 nM in data set [5]. The figures for the GI50 in data set [2] and in data set [6] were 1.73 nM and 3.95 nM, respectively. Further, the TGI in data set [7] (setting [10]) is reported as 81.4%; in data set [7] (setting [11]), 110.1%. In addition, the Weight change in data set [7] (setting [10]) is reported as −0.4%; in data set [7] (setting [11]) it was −6.1%. Besides, the “Tumor volume (mean ± standard error)” value in data set [7] (setting [10]) is 318.6 ± 38.63** mm^3; in data set [7] (setting [11]) it was 38.6 ± 5.19** mm^3. Moreover, the tolerability of mice result in data set [7] (15, 40 mg/kg) was “well tolerated”. In addition, in data set [7] (15, 40 mg/kg po once a day for 21 days), the “tumor growth inhibition (in words)” value is listed as “significantly inhibit tumor growth”.
